# According to patent US11752156B2, “Compositions and methods for treating hyperproliferative skin disorders” (Athenex HK Innovative Limited, priority 2018, dated 2023):
# Several values for one entry are separate records, joined by “and”; a condition that tells them apart may be missing. Equal entries are not always repeated. Where two headings read alike, the source gives them in different places.
# Experiments:
# [1] = system: CCD 1106 KERTr human keratinocyte cell line; assay: MTT cell proliferation assay, 72 hours, dark or blue light, keratinocytes; assay type: cell-based; details: for inhibition at 0.01 µM / inhibition at 0.02 µM / inhibition at 0.04 µM / inhibition at 0.08 µM: Homo sapiens, read-out: growth inhibition relative to untreated control
# Experimental: The effects of combined treatment with KX01, a vitamin D derivative, and/or blue/UV light exposure were characterized using a cell proliferation assay. Cell proliferation was assessed by using an MTT assay. Cells were seeded in 96-well plate (3,000-5,000 cells per well) and treated with test compounds at varying concentrations (e.g. KX01: 5 to 80 nM; calcipotriol 5 to 1,280 nM) for 72 hours, either in the dark or exposed to blue light irradiation (for 2, 4, or 6 hours). To each well, 10 μl of 3-(4,5-dimethylthiazol-2-yl)-2,5-diphenyltetrazolium bromide (MTT) (RPI Corporation™) solution (5 mg/ml in PBS) was added and incubated at 37° C. for 3 hours. Next, 100 μl of 20% SDS was added to each well. After overnight incubation at 37° C., the absorbance in each well was measured at 570 nm in a microplate reader (Molecular Devices™). The cell growth curve and GI50s were calculate using GraphPad Prism™ 5 software. Tables 13 and 14 show the results of cell growth inhibition studies (expressed as a percentage relative to control cell growth) for treatment with either KX01 or calcipotriol in combination with exposure to blue light. […] The percentage of growth inhibition relative to untreated control is shown. […] The percentage of growth inhibition relative to untreated control is shown. Tables 15 to 18 show the effects of combined treatment with KX01, calcipotriol, and exposure to blue light at 0 hours, 2 hours, 4 hours, and 6 hours of light exposure (respectively). Values are expressed as the percentage of growth inhibition relative to cells grown under control conditions (0 hours blue light, [KX01]=0, [calcipotriol]=0). […] Results are shown below in Tables 27 to Table 30, which show results from 0, 2, 4, and 6 hours of blue light exposure (respectively). Values are expressed as the percentage of growth inhibition relative to cells grown under control conditions (0 hours blue light, [KX01]=0, [calcipotriol]=0).
# [2] = system: squamous cell human carcinoma cell line (SCC A431); assay: MTT cell proliferation assay, 72 hours, dark or blue light, squamous cell carcinoma; assay type: cell-based; details: for inhibition at 0.02 µM / inhibition at 0.04 µM / inhibition at 0.08 µM / inhibition at 0.01 µM: Homo sapiens, read-out: growth inhibition relative to untreated control
# Experimental: The effects of combined treatment with KX01, a vitamin D derivative, and/or blue/UV light exposure were characterized using a cell proliferation assay. Cell proliferation was assessed by using an MTT assay. Cells were seeded in 96-well plate (3,000-5,000 cells per well) and treated with test compounds at varying concentrations (e.g. KX01: 5 to 80 nM; calcipotriol 5 to 1,280 nM) for 72 hours, either in the dark or exposed to blue light irradiation (for 2, 4, or 6 hours). To each well, 10 μl of 3-(4,5-dimethylthiazol-2-yl)-2,5-diphenyltetrazolium bromide (MTT) (RPI Corporation™) solution (5 mg/ml in PBS) was added and incubated at 37° C. for 3 hours. Next, 100 μl of 20% SDS was added to each well. After overnight incubation at 37° C., the absorbance in each well was measured at 570 nm in a microplate reader (Molecular Devices™). The cell growth curve and GI50s were calculate using GraphPad Prism™ 5 software. Similar studies were performed using a squamous cell carcinoma cell line (SCC A431). Tables 19 and 20 show the results of cell growth inhibition studies (expressed as a percentage relative to control cell growth) for treatment with either KX01 or calcipotriol in combination with exposure to blue light. […] The percentage of growth inhibition relative to untreated control is shown. Tables 21 to 24 show the effects of combined treatment with KX01, calcipotriol, and exposure to blue light at 0 hours, 2 hours, 4 hours, and 6 hours of light exposure (respectively) on human squamous cell carcinoma cells. Values are expressed as the percentage of growth inhibition relative to cells grown under control conditions (0 hours blue light, [KX01]=0, [calcipotriol]=0). The percentage of growth inhibition relative to an untreated control is shown. […] Results are shown below in Tables 31 and 32, which show results for KX01 and calcipotriol (respectively). Values are expressed as the percentage of growth inhibition relative to cells grown under control conditions (0 hours blue light, [KX01]=0, [calcipotriol]=0). […] Results are shown below in Tables 33 to Table 36, which show results from 0, 2, 4, and 6 hours of blue light exposure (respectively). Values are expressed as the percentage of growth inhibition relative to cells grown under control conditions (0 hours blue light, [KX01]=0, [calcipotriol]=0).
smiles,measurement,setting,value
"O=C(Cc1ccc(-c2ccc(OCCN3CCOCC3)cc2)cn1)NCc1ccccc1 [KX01, N-benzyl-2-(5-{4-[2-(morpholine-4-yl)ethoxy]phenyl}pyridine-2-yl)acetamide]",inhibition at 0.01 µM,"[1]; CCD-1106, 2 h, KX01 10 nM, blue light 2 h",27%
same,inhibition at 0.02 µM,"[1]; CCD-1106, 2 h, KX01 20 nM, blue light 2 h",63%
same,inhibition at 0.04 µM,"[1]; CCD-1106, 2 h, KX01 40 nM, blue light 2 h",92%
same,inhibition at 0.01 µM,"[1]; CCD-1106, 4 h, KX01 10 nM, blue light 4 h",47%
same,inhibition at 0.02 µM,"[1]; CCD-1106, 4 h, KX01 20 nM, blue light 4 h",64%
same,inhibition at 0.04 µM,"[1]; CCD-1106, 4 h, KX01 40 nM, blue light 4 h",87%
same,inhibition at 0.08 µM,"[1]; CCD-1106, 4 h, KX01 80 nM, blue light 4 h",92%
same,inhibition at 0.01 µM,"[1]; CCD-1106, 6 h, KX01 10 nM, blue light 6 h",56%
same,inhibition at 0.02 µM,"[1]; CCD-1106, 6 h, KX01 20 nM, blue light 6 h",70%
same,inhibition at 0.04 µM,"[1]; CCD-1106, 6 h, KX01 40 nM, blue light 6 h",88%
same,inhibition at 0.08 µM,"[1]; CCD-1106, 6 h, KX01 80 nM, blue light 6 h",87%
same,growth inhibition relative to untreated control,"[1]; KX01 10 nM, blue light 0 h",4% and 9% and 6%
same,growth inhibition relative to untreated control,"[1]; KX01 10 nM, blue light 2 h",32% and 34%
same,growth inhibition relative to untreated control,"[1]; KX01 10 nM, blue light 4 h",50%
same,growth inhibition relative to untreated control,"[1]; KX01 10 nM, blue light 6 h",62% and 57%
same,growth inhibition relative to untreated control,"[1]; KX01 20 nM, blue light 0 h",49%
same,growth inhibition relative to untreated control,"[1]; KX01 20 nM, blue light 2 h",74% and 68%
same,growth inhibition relative to untreated control,"[1]; KX01 20 nM, blue light 4 h",69% and 68%
same,growth inhibition relative to untreated control,"[1]; KX01 20 nM, blue light 6 h",67% and 73%
same,growth inhibition relative to untreated control,"[1]; KX01 40 nM, blue light 0 h",90% and 45%
same,growth inhibition relative to untreated control,"[1]; KX01 40 nM, blue light 2 h",98% and 91%
same,growth inhibition relative to untreated control,"[1]; KX01 40 nM, blue light 4 h",86%
same,growth inhibition relative to untreated control,"[1]; KX01 40 nM, blue light 6 h",84%
same,growth inhibition relative to untreated control,"[1]; KX01 80 nM, blue light 0 h",96% and 48% and 95%
same,growth inhibition relative to untreated control,"[1]; KX01 80 nM, blue light 4 h",93% and 90%
same,growth inhibition relative to untreated control,"[1]; KX01 80 nM, blue light 6 h",83%
same,effect of blue light exposure with the drug on cell growth inhibition,[1]; for example 6 hours of blue light with 10 nm KX01,Synergistic effects
same,inhibition at 0.02 µM,"[2]; A-431, 0 h, KX01 20 nM, blue light 0 h",99%
same,inhibition at 0.04 µM,"[2]; A-431, 0 h, KX01 40 nM, blue light 0 h",99%
same,inhibition at 0.08 µM,"[2]; A-431, 0 h, KX01 80 nM, blue light 0 h",99%
same,inhibition at 0.01 µM,"[2]; A-431, 2 h, KX01 10 nM, blue light 2 h",40%
same,inhibition at 0.02 µM,"[2]; A-431, 2 h, KX01 20 nM, blue light 2 h",97%
same,inhibition at 0.04 µM,"[2]; A-431, 2 h, KX01 40 nM, blue light 2 h",97%
same,inhibition at 0.08 µM,"[2]; A-431, 2 h, KX01 80 nM, blue light 2 h",95%
same,inhibition at 0.01 µM,"[2]; A-431, 4 h, KX01 10 nM, blue light 4 h",66%
same,inhibition at 0.02 µM,"[2]; A-431, 4 h, KX01 20 nM, blue light 4 h",76%
same,inhibition at 0.04 µM,"[2]; A-431, 4 h, KX01 40 nM, blue light 4 h",73%
same,inhibition at 0.08 µM,"[2]; A-431, 4 h, KX01 80 nM, blue light 4 h",75%
same,inhibition at 0.01 µM,"[2]; A-431, 6 h, KX01 10 nM, blue light 6 h",79%
same,inhibition at 0.02 µM,"[2]; A-431, 6 h, KX01 20 nM, blue light 6 h",81%
same,inhibition at 0.04 µM,"[2]; A-431, 6 h, KX01 40 nM, blue light 6 h",81%
same,inhibition at 0.08 µM,"[2]; A-431, 6 h, KX01 80 nM, blue light 6 h",82%
same,growth inhibition relative to untreated control,"[2]; KX01 10 nM, blue light 0 h",0% and 11%
same,growth inhibition relative to untreated control,"[2]; KX01 10 nM, blue light 2 h",44%
same,growth inhibition relative to untreated control,"[2]; KX01 10 nM, blue light 6 h",77%
same,growth inhibition relative to untreated control,"[2]; KX01 20 nM, blue light 0 h",80%
same,growth inhibition relative to untreated control,"[2]; KX01 20 nM, blue light 2 h",83%
same,growth inhibition relative to untreated control,"[2]; KX01 20 nM, blue light 4 h",69% and 74%
same,growth inhibition relative to untreated control,"[2]; KX01 20 nM, blue light 6 h",83%
same,growth inhibition relative to untreated control,"[2]; KX01 40 nM, blue light 0 h",100%
same,growth inhibition relative to untreated control,"[2]; KX01 40 nM, blue light 4 h",80%
same,growth inhibition relative to untreated control,"[2]; KX01 40 nM, blue light 6 h",86%
same,growth inhibition relative to untreated control,"[2]; KX01 80 nM, blue light 2 h",98%
same,growth inhibition relative to untreated control,"[2]; KX01 80 nM, blue light 4 h",84%
same,growth inhibition relative to untreated control,"[2]; KX01 80 nM, blue light 6 h",88%
same,effect of blue light exposure with the drug on cell growth inhibition,[2]; for example at 10 nM KX01,Synergistic effects
